# From patent EP4603105A1, “PHARMACEUTICAL COMPOSITION CONTAINING CYCLIC COMPOUND HAVING SELECTIVE KRAS INHIBITORY EFFECT AGAINST HRAS AND NRAS” (CHUGAI SEIYAKU KABUSHIKI KAISHA, priority 2022, dated 2024)
# *1 amine or outer side, *2 acyl side, *3 side chain or, on linkers, in order; H or OH if unused. Where a SMILES comes first, the peptide text is derived from it. Bridges are numbered along the chain shown (N, C = ends). [ ]: non-standard residue; d: D form. The star is where a group is joined. hPhe(3-Cl-4-CF3) = N[C@@H](CCc1ccc(C(F)(F)F)c(Cl)c1)C(=O)O; NPrPhe(4-CF3) = CCCN[C@@H](Cc1ccc(C(F)(F)F)cc1)C(=O)O; X28 = Cc1ccc(C[C@@H](C(=O)[*:2])N(CC2CCCCC2)[*:1])cc1; X32 = Cc1ccc(C[C@@H](C(=O)[*:2])N(CC2CCCC2)[*:1])cc1; NMeGly(cPent) = CN[C@H](C(=O)O)C1CCCC1; Pro(4,4-F2) = O=C(O)[C@@H]1CC(F)(F)CN1; NMeD = CN[C@@H](CC(=O)O)C(=O)O; NMeL = CN[C@@H](CC(C)C)C(=O)O; Morpholide = C1CN(*)CCO1; NMeA = CN[C@@H](C)C(=O)O; Ac5c = NC1(C(=O)O)CCCC1; Aze = O=C(O)[C@@H]1CCN1; Sar = CNCC(=O)O
# Assays:
# [1] = test system: human lung cancer strain NCI-H441; format: cell-based
# In short: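 Signal came from […] measured per well once the reagent was added. Beforehand, cells were cultured at 37°C and 5% carbon dioxide on a compound series serially diluted in dimethyl sulfoxide.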
# [2] = molecular target: GDP-bound NRAS wild-type protein (Homo sapiens, UniProt P01111); test: Binding to NRAS by surface plasmon resonance (SPR), KD and KD ratio to KRAS
# In short: (§1)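 Each cycle, GDP-bound biotin-Avi RAS was captured (~100–300 RU), compound concentrations were injected low to high for 75 s each at 100 µL/min, then the chip was regenerated. Buffer: HBS pH 7.4, 10 mM MgCl2, 10 µM GDP, 1 mM DTT, 4% DMSO; 30°C. KD from a 1:1 binding model.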
# HRAS wild-type protein = HRAS wild-type protein (Homo sapiens, UniProt P01112); test: Binding to HRAS by surface plasmon resonance (SPR), KD and KD ratio to KRAS
# In short: as §1
# [3] = ratio of the KD value with respect to GDP-bound NRAS wild-type protein to the KD value with respect to KRAS
# [4] = ratio of the KD value with respect to HRAS wild-type protein to the KD value with respect to KRAS
# [5] = ratio of KD for GDP-bound NRAS wild-type protein to KD for KRAS
# [6] = ratio of KD for HRAS wild-type protein to KD for KRAS
# Sequence of HRAS wild-type protein (P01112 whole entry): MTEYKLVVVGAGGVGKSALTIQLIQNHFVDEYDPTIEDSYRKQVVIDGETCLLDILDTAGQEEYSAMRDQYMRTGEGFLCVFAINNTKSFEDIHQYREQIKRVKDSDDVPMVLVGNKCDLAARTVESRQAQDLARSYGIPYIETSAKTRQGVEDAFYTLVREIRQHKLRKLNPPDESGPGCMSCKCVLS
# Sequence of GDP-bound NRAS wild-type protein (P01111 whole entry): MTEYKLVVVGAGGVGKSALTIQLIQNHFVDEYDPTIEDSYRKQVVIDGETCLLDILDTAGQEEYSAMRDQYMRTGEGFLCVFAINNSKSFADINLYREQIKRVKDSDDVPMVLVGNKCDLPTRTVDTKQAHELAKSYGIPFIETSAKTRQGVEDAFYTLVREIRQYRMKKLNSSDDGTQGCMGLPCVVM
SMILES,IC50 [1],"NRAS /KRAS [2, 3]",HRAS /KRAS (HRAS wild-type protein; [4]),NRAS /KRAS ([2]; ratio of KD value for GDP-bound NRAS wild-type protein to KD value for KRAS (SPR)),HRAS /KRAS (HRAS wild-type protein; ratio of KD value for HRAS wild-type protein to KD value for KRAS (SPR)),"NRAS /KRAS [2, 5]",HRAS /KRAS (HRAS wild-type protein; [6])
CC[C@H](C)[C@@H]1NC(=O)[C@H](CC(C)C)N(C)C(=O)C[C@@H](C(=O)N2CCOCC2)N(C)C(=O)[C@H](C2CCCC2)N(C)C(=O)C2(COC2)NC(=O)[C@@H]2CCCN2C(=O)[C@H](CCc2cc(F)c(C(F)(F)F)c(F)c2)NC(=O)CN(C)C(=O)[C@H](Cc2ccc(C(F)(F)F)cc2)N2CCCC[C@@H](C2=O)N(C)C(=O)CN(C)C1=O [PP0563],29 nM,B (a compound having 3 or more and less than 10 is denoted as B),B (a compound having 3 or more and less than 10 is denoted as B),–,–,–,–
CCO[C@@H]1C[C@H]2C(=O)NC3(CC(C)(C)C3)C(=O)N(C)[C@@H](C3CCCC3)C(=O)N3CCC[C@@H]3CC(=O)N(C)[C@@H](CC3CC3)C(=O)N[C@@H]([C@@H](C)CC)C(=O)N(C)CC(=O)N(C)[C@H]3C/C=C\CCN(C3=O)[C@@H](Cc3ccc(C(F)(F)F)cc3)C(=O)N(C)CC(=O)N[C@@H](CCc3cc(F)c(C(F)(F)F)c(F)c3)C(=O)N2C1 [PP1611],28 nM,–,–,B (a compound having 3 or more and less than 10 is denoted as B),B (a compound having 3 or more and less than 10 is denoted as B),–,–
CC[C@H](C)[C@@H]1NC(=O)[C@H](CC)N(C)C(=O)C[C@@H](C(=O)N(C)C)N(C)C(=O)[C@H](C2CCCC2)N(C)C(=O)C2(CCC2)NC(=O)[C@@H]2C[C@@H](N3CCC(F)(F)CC3)CN2C(=O)[C@H](CCc2cc(F)c(C(F)(F)F)c(F)c2)NC(=O)CN(C)C(=O)[C@H](Cc2ccc(C(F)(F)F)cc2)N2CCCC[C@@H](C2=O)N(C)C(=O)CN(C)C1=O [PP0656],26.5 nM,C (A compound having a KD ratio of 0.1 or more and less than 3 is denoted as C),C (A compound having a KD ratio of 0.1 or more and less than 3 is denoted as C),–,–,–,–
CCO[C@@H]1C[C@H]2C(=O)NC3(CCC3)C(=O)N(C)[C@@H](C3CCCC3)C(=O)N(C)[C@H](C(=O)N(C)C)CC(=O)N(C)[C@@H](CC)C(=O)N[C@@H]([C@@H](C)CC)C(=O)N(C)CC(=O)N(C)[C@H]3C/C=C\CCN(C3=O)[C@@H](Cc3ccc(C(F)(F)F)cc3)C(=O)N(C)CC(=O)N[C@@H](CCc3ccc(C(F)(F)F)c(Cl)c3)C(=O)N2C1 [PP0978],22.7 nM,–,–,–,–,A (a compound having 10 or more and less than 20 is denoted as A),B (a compound having 3 or more and less than 10 is denoted as B)
CC[C@H](C)[C@@H]1NC(=O)[C@H](CC(C)C)N(C)C(=O)C[C@@H](C(=O)N2CCOCC2)N(C)C(=O)[C@H](C2CCCC2)N(C)C(=O)C2(CCCC2)NC(=O)[C@@H]2CCCN2C(=O)[C@H](CCc2ccc(C(F)(F)F)c(Cl)c2)NC(=O)CN(C)C(=O)[C@H](Cc2ccc(C)cc2)N(CC2CCCCC2)C(=O)[C@@H]2CCN2C(=O)[C@H](C)N(C)C1=O [PP0085] ([NMeL]I[NMeA][Aze][X28][Sar][hPhe(3-Cl-4-CF3)]P[Ac5c][NMeGly(cPent)][NMeD]-Morpholide; lactam N-11),108 nM,–,–,–,–,C (A compound having a KD ratio of 0.1 or more and less than 3 is denoted as C),C (A compound having a KD ratio of 0.1 or more and less than 3 is denoted as C)
"CCCN1C(=O)CN(C)C(=O)CNC(=O)[C@H]([C@@H](C)CC)NC(=O)[C@H](CC(C)C)N(C)C(=O)C[C@@H](C(=O)N(C)C)N(C)C(=O)[C@H](C2CCCC2)N(C)C(=O)C2(CCCC2)NC(=O)[C@@H]2CC(F)(F)CN2C(=O)[C@H](CCc2ccc(C(F)(F)F)c(Cl)c2)NC(=O)CN(C)C(=O)[C@@H]1Cc1ccc(C(F)(F)F)cc1 [PP0419] ([NMeL]IG[Sar][NPrPhe(4-CF3)][Sar][hPhe(3-Cl-4-CF3)][Pro(4,4-F2)][Ac5c][NMeGly(cPent)][NMeD]-NMe2; lactam N-11)",4.2 nM,B (a compound having 3 or more and less than 10 is denoted as B),C (A compound having a KD ratio of 0.1 or more and less than 3 is denoted as C),–,–,–,–
CC[C@H](C)[C@@H]1NC(=O)[C@H](CC(C)C)N(C)C(=O)C[C@@H](C(=O)N2CCOCC2)N(C)C(=O)[C@H](C2CCCC2)N(C)C(=O)C2(CCCC2)NC(=O)[C@@H]2CCCN2C(=O)[C@H](CCc2ccc(C(F)(F)F)c(Cl)c2)NC(=O)CN(C)C(=O)[C@H](Cc2ccc(C)cc2)N(CC2CCCC2)C(=O)CN(C)C(=O)CN(C)C1=O [PP0096] ([NMeL]I[Sar][Sar][X32][Sar][hPhe(3-Cl-4-CF3)]P[Ac5c][NMeGly(cPent)][NMeD]-Morpholide; lactam N-11),68.9 nM,–,–,–,–,C (A compound having a KD ratio of 0.1 or more and less than 3 is denoted as C),C (A compound having a KD ratio of 0.1 or more and less than 3 is denoted as C)

# Continued, in another order:
IC50 [1],SMILES,"NRAS /KRAS [2, 3]",HRAS /KRAS (HRAS wild-type protein; [4]),NRAS /KRAS ([2]; ratio of KD value for GDP-bound NRAS wild-type protein to KD value for KRAS (SPR)),HRAS /KRAS (HRAS wild-type protein; ratio of KD value for HRAS wild-type protein to KD value for KRAS (SPR)),"NRAS /KRAS [2, 5]",HRAS /KRAS (HRAS wild-type protein; [6])
19.7 nM,CC[C@H](C)[C@@H]1NC(=O)[C@H](C2CCC2)N(C)C(=O)C[C@@H](C(=O)N(C)CC)N(C)C(=O)[C@H](C2CCCC2)N(C)C(=O)C2(CC(C)(C)C2)NC(=O)[C@@H]2C[C@H](C)CN2C(=O)[C@H](CCc2ccc(C(F)(F)F)c(OC)c2)NC(=O)CN(C)C(=O)[C@H](Cc2ccc(C(F)(F)F)cc2)N2CC/C=C\C[C@@H](C2=O)N(C)C(=O)CN(C)C1=O [PP2009],A (a compound having 10 or more and less than 20 is denoted as A),A (a compound having 10 or more and less than 20 is denoted as A),–,–,–,–
21 nM,CCO[C@@H]1C[C@H]2C(=O)NC3(CC(C)(C)C3)C(=O)N(C)[C@@H](C3CCCC3)C(=O)N(C)[C@H](C(=O)N(C)CC)CC(=O)N(C)[C@@H](CC(C)C)C(=O)N[C@@H]([C@@H](C)CC)C(=O)N(C)CC(=O)N(C)[C@H]3C/C=C\CCN(C3=O)[C@@H](Cc3ccc(C(F)F)cc3)C(=O)N(C)CC(=O)N[C@@H](CCc3ccc(Cl)c(Cl)c3)C(=O)N2C1 [PP2827],–,–,–,–,A (a compound having 10 or more and less than 20 is denoted as A),B (a compound having 3 or more and less than 10 is denoted as B)
5.7 nM,CCCOC[C@H]1C(=O)N[C@@H]([C@@H](C)CC)C(=O)N2CCC[C@H]2C(=O)N(C)[C@H]2C/C=C\CCN(C2=O)[C@@H](Cc2ccc(C)cc2)C(=O)N(C)CC(=O)N[C@@H](CCc2ccc(C(F)(F)F)c(OC)c2)C(=O)N2C[C@H](OCC)C[C@H]2C(=O)N(C)C2(CCC2)C(=O)N(C)[C@@H](C2CCCC2)C(=O)N(C)[C@H](C(=O)N(C)C)CC(=O)N1C [PP2334],A (a compound having 10 or more and less than 20 is denoted as A),B (a compound having 3 or more and less than 10 is denoted as B),–,–,–,–
8.7 nM,C#CC[C@H]1C(=O)N[C@@H]([C@@H](C)CC)C(=O)N(C)CC(=O)N(C)[C@H]2C/C=C\CCN(C2=O)[C@@H](Cc2ccc(C(F)(F)F)cc2)C(=O)N(C)CC(=O)N[C@@H](CCc2cc(F)c(C(F)(F)F)c(F)c2)C(=O)N2CC3(CC3)C[C@H]2C(=O)NC2(CC(C)(C)C2)C(=O)N(C)[C@@H](C2CCCC2)C(=O)N(C)[C@H](C(=O)N(C)C)CC(=O)N1C [PP2976],–,–,–,–,A (a compound having 10 or more and less than 20 is denoted as A),B (a compound having 3 or more and less than 10 is denoted as B)
6.6 nM,CCO[C@@H]1C[C@H]2C(=O)NC3(CCC3)C(=O)N(C)[C@@H](C3CCCC3)C(=O)N(C)[C@H](C(=O)N(C)CC)CC(=O)N(C)[C@@H](C(C)C)C(=O)N[C@@H]([C@@H](C)CC)C(=O)N(C)CC(=O)N(C)[C@H]3C/C=C\CCN(C3=O)[C@@H](Cc3ccc(C(F)(F)F)cc3)C(=O)N(C)CC(=O)N[C@@H](CCc3cc(F)c(C(F)(F)F)c(F)c3)C(=O)N2C1 [PP1990],A (a compound having 10 or more and less than 20 is denoted as A),A (a compound having 10 or more and less than 20 is denoted as A),–,–,–,–
